Laboratory results from US7365099B2, “Animal body fat control” (Wisconsin Alumni Research Foundation, priority 2001, dated 2008).

Experiments:
[1] = tested on: 3T3-L1 adipocytes; test: Glycerol released from 3T3-L1 adipocytes; assay type: cell-based; conditions: treated 20–24 hours
Method: Fat reduction by CLA is partly due to inhibition of lipoprotein lipase (LPL) in adipocytes, as has been previously shown using a 3T3-L1 adipocyte cell culture model. Using the same model, the effects on LPL of aspirin and NDGA, as compared to CLA, were tested. 3T3-L1 preadipocytes were cultured as described. Frost, S. C. and M. D. Lane, J. Biol. Chem. 260: 2646–2652(1985). Briefly, 3T3-L1 preadipocytes were grown to confluence at 37° C. in Dulbecco's Modified Eagle's Medium (DMEM) with 10% fetal bovine serum (FBS). At two days post-confluence (designated “day 0”) cell differentiation was induced with a mixture of methylisobutylxanthine (0.5 mM), dexamethasone (0.25 μM), and insulin (1 μg/ml) in DMEM containing 10% FBS. On “day 2” this medium was replaced with DMEM medium containing 10% FBS and insulin only. On “day 4” and thereafter the medium was DMEM plus 10% FBS only; this medium was subsequently replaced with fresh medium at 2 day intervals.
Cells were treated with other known lipoxygenase inhibitors. Cells were treated with testing compounds for 20–24 hours at day 6 or 7 post differentiation. Based on the ED50 of these inhibitors, various doses were first tested. In FIG. 5A, the concentration of SHA, CLA, ETYA, indomethacin, NDGA and AA861 were 1×10^−3 M, 1×10^−4 M, 1×10^−4 M, 1×10^−4 M, 1×10^−5 M and 1×10^−6 M, respectively. In FIG. 5B, the cells were treated with the test compounds at 1×10^−4 M. CLA was complexed with albumin and others were dissolved in ethanol. All dishes including control contained the same concentration of albumin (1×10^−4 M) and ethanol (final concentration of 0.1%). Numbers are mean±S.E. (in FIG. 5A, n=7–8, collected from 2 independent experiments, in FIG. 5B, n=11–12, collected from 3 independent experiments). […] Indomethacin blocks both cyclooxygenase and lipoxygenase, the two primary enzymes in the arachidonic acid metabolic cascade. […] When 100 μM of these were tested, the potency was AA861>NDGA>ETYA>Indomethacin>CLA. […]

[2] = tested on: lipoprotein lipase associated with 3T3-L1 adipocytes; test: Heparin-releasable lipoprotein lipase (LPL) activity in 3T3-L1 adipocyte cultures; assay type: cell-based; conditions: FIG. 5B; 20–24 hours; all test compounds at 100 μM
Method: Using the same model, the effects on LPL of aspirin and NDGA, as compared to CLA, were tested. 3T3-L1 preadipocytes were cultured as described. […] Briefly, 3T3-L1 preadipocytes were grown to confluence at 37° C. in Dulbecco's Modified Eagle's Medium (DMEM) with 10% fetal bovine serum (FBS). At two days post-confluence (designated “day 0”) cell differentiation was induced with a mixture of methylisobutylxanthine (0.5 mM), dexamethasone (0.25 μM), and insulin (1 μg/ml) in DMEM containing 10% FBS. On “day 2” this medium was replaced with DMEM medium containing 10% FBS and insulin only. On “day 4” and thereafter the medium was DMEM plus 10% FBS only; this medium was subsequently replaced with fresh medium at 2 day intervals.
First, aspirin was tested along with PGE2, which is the final product of cyclooxygenase. Cells were treated with testing compounds for 4 hours before harvesting at day 6 or 7 post differentiation. The concentration of CLA, aspirin, and PGE2 were 1×10^−4 M, 1×10^−4 M, and 1×10^−6 M respectively. […] All dishes (including control) contained the same concentration of albumin (1×10^−4 M) and ethanol (final concentration of 0.1%).
Heparin-releasable lipoprotein lipase (LPL) activity (EC 3.1.1.34, 10 U heparin/ml media for 1 hr at 37° C.) was measured as described. Nilsson-Ehle, P. and M. C. […] Protein was determined using Bio-Rad DC Protein assay kit.
In a next set of cell culture experiments, shown in FIG. 4, cells were treated with testing compounds for 20–24 hours at day 7 post differentiation. […] CLA was complexed with albumin, and aspirin and NDGA were dissolved in ethanol. All dishes including control contained the same concentration of albumin (1×10^−4 M) and ethanol (final concentration of 0.05%). Numbers are mean±S.E. (n=7–8, collected from 2 independent experiments).
Cells were treated with other known lipoxygenase inhibitors. Cells were treated with testing compounds for 20–24 hours at day 6 or 7 post differentiation. Based on the ED50 of these inhibitors, various doses were first tested. In FIG. 5A, the concentration of SHA, CLA, ETYA, indomethacin, NDGA and AA861 were 1×10^−3 M, 1×10^−4 M, 1×10^−4 M, 1×10^−4 M, 1×10^−5 M and 1×10^−6 M, respectively. In FIG. 5B, the cells were treated with the test compounds at 1×10^−4 M. CLA was complexed with albumin and others were dissolved in ethanol. All dishes including control contained the same concentration of albumin (1×10^−4 M) and ethanol (final concentration of 0.1%). Numbers are mean±S.E. (in FIG. 5A, n=7–8, collected from 2 independent experiments, in FIG. 5B, n=11–12, collected from 3 independent experiments). […] Indomethacin blocks both cyclooxygenase and lipoxygenase, the two primary enzymes in the arachidonic acid metabolic cascade.

| potency in reducing LPL (rank order, in words) [2] | SMILES | glycerol released from the cell (in words) [1] |
| --- | --- | --- |
| AA861>NDGA>ETYA>Indomethacin>CLA | CC1=C(C)C(=O)C(CCCCC#CCCCC#CCO)=C(C)C1=O [AA861, 2-[12-hydroxydodeca-5,10-diynyl]-3,5,6-trimethyl-p-benzoquinone] | reduced the glycerol release |
| AA861>NDGA>ETYA>Indomethacin>CLA | CCCCCC#CCC#CCC#CCC#CCCCC(=O)O [ETYA, 5,8,11,14-eicosatetraynoic acid] |  |
| AA861>NDGA>ETYA>Indomethacin>CLA | COc1ccc2c(c1)c(CC(=O)O)c(C)n2C(=O)c1ccc(Cl)cc1 [Indomethacin, indomethacin] |  |
